The values that follow come from patent US20250042903A1, “TRIAZINE INHIBITORS OF CYCLIN-DEPENDENT KINASES” (H. LEE MOFFITT CANCER CENTER AND RESEARCH INSTITUTE, INC., priority 2021, published 2025).

Test [1] has as its target cyclin-dependent kinase 12 (Homo sapiens (Human), UniProt Q9NYV4). Put plainly: Inhibition of cyclin-dependent kinase 12. Format: biochemical. Particulars: read-out: CDK12 inhibition, IC50. The source says: (§1) The inhibitory and antiproliferative activities of selected compounds disclosed herein against cyclin-dependent kinase 12 were investigated.
The subject of the next test is MDA-MB-231. As to the kind of experiment: Antiproliferative activity in MDA-MB-231. In kind it is cell-based. To be noted: Homo sapiens.
Description: as §1

Sequence of cyclin-dependent kinase 12 (Q9NYV4 whole entry): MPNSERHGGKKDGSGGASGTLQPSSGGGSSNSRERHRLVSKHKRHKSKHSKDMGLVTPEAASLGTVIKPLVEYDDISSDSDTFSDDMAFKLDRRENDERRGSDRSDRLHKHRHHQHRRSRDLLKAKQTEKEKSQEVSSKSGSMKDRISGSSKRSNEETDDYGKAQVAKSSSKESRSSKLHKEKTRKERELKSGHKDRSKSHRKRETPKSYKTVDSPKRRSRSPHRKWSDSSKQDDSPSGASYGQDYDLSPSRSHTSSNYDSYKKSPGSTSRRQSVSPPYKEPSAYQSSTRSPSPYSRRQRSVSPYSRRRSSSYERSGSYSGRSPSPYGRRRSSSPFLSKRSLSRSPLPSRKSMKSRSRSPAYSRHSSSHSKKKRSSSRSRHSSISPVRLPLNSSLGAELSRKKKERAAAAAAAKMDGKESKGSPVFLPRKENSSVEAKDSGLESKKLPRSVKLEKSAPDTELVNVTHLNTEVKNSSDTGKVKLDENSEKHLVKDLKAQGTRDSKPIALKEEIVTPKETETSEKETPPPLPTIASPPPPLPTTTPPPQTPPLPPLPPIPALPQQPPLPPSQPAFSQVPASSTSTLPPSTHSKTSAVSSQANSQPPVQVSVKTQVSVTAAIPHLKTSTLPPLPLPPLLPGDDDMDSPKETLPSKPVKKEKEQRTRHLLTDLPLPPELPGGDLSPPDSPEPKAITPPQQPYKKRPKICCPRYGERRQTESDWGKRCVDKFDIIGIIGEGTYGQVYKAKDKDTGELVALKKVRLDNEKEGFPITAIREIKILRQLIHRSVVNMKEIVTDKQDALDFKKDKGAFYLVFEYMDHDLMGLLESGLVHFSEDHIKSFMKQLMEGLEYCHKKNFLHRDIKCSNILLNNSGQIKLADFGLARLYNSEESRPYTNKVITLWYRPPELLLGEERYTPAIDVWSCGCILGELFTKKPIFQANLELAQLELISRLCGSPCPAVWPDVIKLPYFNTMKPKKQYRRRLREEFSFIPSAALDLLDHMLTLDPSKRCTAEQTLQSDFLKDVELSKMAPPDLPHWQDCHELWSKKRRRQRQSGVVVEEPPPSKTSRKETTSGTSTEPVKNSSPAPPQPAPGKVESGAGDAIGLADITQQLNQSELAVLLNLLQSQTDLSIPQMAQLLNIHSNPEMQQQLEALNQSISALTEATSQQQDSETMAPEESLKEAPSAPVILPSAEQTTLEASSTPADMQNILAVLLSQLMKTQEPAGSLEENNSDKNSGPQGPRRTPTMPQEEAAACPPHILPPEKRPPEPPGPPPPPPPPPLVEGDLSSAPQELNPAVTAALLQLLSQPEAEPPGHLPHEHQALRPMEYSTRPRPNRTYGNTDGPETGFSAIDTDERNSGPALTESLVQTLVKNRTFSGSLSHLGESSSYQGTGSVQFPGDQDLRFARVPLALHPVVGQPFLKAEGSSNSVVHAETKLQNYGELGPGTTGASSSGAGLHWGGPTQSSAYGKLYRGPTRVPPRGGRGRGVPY
Sequence of cyclin-dependent kinase 12 (O75909 whole entry partner): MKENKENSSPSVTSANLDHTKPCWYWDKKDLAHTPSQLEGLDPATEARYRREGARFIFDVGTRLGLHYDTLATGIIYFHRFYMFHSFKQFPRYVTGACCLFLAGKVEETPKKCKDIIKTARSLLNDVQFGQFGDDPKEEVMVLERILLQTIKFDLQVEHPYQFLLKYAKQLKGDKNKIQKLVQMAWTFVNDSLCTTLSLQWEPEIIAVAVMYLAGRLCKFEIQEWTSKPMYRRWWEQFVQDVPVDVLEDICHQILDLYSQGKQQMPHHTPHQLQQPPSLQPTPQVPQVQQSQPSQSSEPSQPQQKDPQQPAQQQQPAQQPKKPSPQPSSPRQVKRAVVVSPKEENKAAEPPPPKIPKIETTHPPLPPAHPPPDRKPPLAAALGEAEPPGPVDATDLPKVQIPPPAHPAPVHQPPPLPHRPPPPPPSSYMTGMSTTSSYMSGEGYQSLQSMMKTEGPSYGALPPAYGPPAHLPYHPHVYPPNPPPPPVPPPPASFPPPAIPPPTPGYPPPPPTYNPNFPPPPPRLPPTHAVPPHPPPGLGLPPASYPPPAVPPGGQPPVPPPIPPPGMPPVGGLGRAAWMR

The IC50 is the concentration at which inhibition is half-maximal. One may read the GI50 as the concentration that inhibits growth by half. As for `Cn1cc(-c2cnn3c(NCc4nc5cc(Cl)c(Cl)cc5[nH]4)nc(N4CCOCC4)nc23)cn1` [Compound 1, N-((5,6-dichloro-1H-benzo[d]imidazol-2-yl)methyl)-8-(1-methyl-1H-pyrazol-4-yl)-2-morpholinopyrazolo[1,5-a][1,3,5]triazin-4-amine], in test [1], the IC50 came to 554 nM. Further, the GI50 in the test on MDA-MB-231 came to 419 nM.
Turning to `FC(F)n1cc(-c2cnn3c(NCc4nc5cc(Cl)c(Cl)cc5[nH]4)nc(N4CCOCC4)nc23)cn1` [Compound 2, N-((5,6-dichloro-1H-benzo[d]imidazol-2-yl)methyl)-8-(1-(difluoromethyl)-1H-pyrazol-4-yl)-2-morpholinopyrazolo[1,5-a][1,3,5]triazin-4-amine], the IC50 in test [1] turned out to be 262 nM. Besides, growth in the test on MDA-MB-231 was halved (GI50) at 150 nM.
On to `FC(F)n1cc(-c2cnn3c(NCc4nc5cc(Cl)c(Cl)cc5[nH]4)nc(N4CCC(F)(F)CC4)nc23)cn1` [Compound 3, N-((5,6-dichloro-1H-benzo[d]imidazol-2-yl)methyl)-8-(1-(difluoromethyl)-1H-pyrazol-4-yl)-2-(4,4-difluoropiperidin-1-yl)pyrazolo[1,5-a][1,3,5]triazin-4-amine], for which, in test [1], the IC50 is over 10000 nM. Further, the GI50 in the test on MDA-MB-231 was 710 nM.
On to `OC[C@@H]1COCCN1c1nc(NCc2nc3cc(Cl)c(Cl)cc3[nH]2)n2ncc(-c3cnn(C(F)F)c3)c2n1` [Compound 4, (R)-(4-(4-(((5,6-dichloro-1H-benzo[d]imidazol-2-yl)methyl)amino)-8-(1-(difluoromethyl)-1H-pyrazol-4-yl)pyrazolo[1,5-a][1,3,5]triazin-2-yl)morpholin-3-yl)methanol], for which the IC50 in test [1] was 4050 nM. In addition, it took 384 nM to inhibit growth with MDA-MB-231 by half (GI50).
With `Clc1cc2nc(CNc3nc(N4CCOCC4)nc4c(-c5ccsc5)cnn34)[nH]c2cc1Cl` [Compound 5, N-((5,6-dichloro-1H-benzo[d]imidazol-2-yl)methyl)-2-morpholino-8-(thiophen-3-yl)pyrazolo[1,5-a][1,3,5]triazin-4-amine], the IC50 in test [1] is 2420 nM. In the test with MDA-MB-231, this molecule registered a GI50 of 764 nM.
The matching figures for `FC(F)n1cc(-c2cnn3c(NCc4nc5cccc(Cl)c5[nH]4)nc(N4CCOCC4)nc23)cn1` [Compound 6, N-((7-chloro-1H-benzo[d]imidazol-2-yl)methyl)-8-(1-(difluoromethyl)-1H-pyrazol-4-yl)-2-morpholinopyrazolo[1,5-a][1,3,5]triazin-4-amine]: 65 nM and 62 nM.
The matching figures for `FC(F)n1cc(-c2cnn3c(NCc4nc5cccc(Cl)c5[nH]4)nc(N4CCC(F)(F)CC4)nc23)cn1` [Compound 7, N-((7-chloro-1H-benzo[d]imidazol-2-yl)methyl)-8-(1-(difluoromethyl)-1H-pyrazol-4-yl)-2-(4,4-difluoropiperidin-1-yl)pyrazolo[1,5-a][1,3,5]triazin-4-amine]: 552 nM and 980 nM.
On to `Fc1cccc2nc(CNc3nc(N4CCOCC4)nc4c(-c5cnn(C(F)F)c5)cnn34)[nH]c12` [Compound 8, 8-(1-(difluoromethyl)-1H-pyrazol-4-yl)-N-((7-fluoro-1H-benzo[d]imidazol-2-yl)methyl)-2-morpholinopyrazolo[1,5-a][1,3,5]triazin-4-amine], for which, in test [1], the IC50 was 44 nM. Moreover, in the test with MDA-MB-231, it took 44 nM to inhibit growth by half (GI50).
Turning to `Clc1cccc2nc(CNc3nc(N4CCOCC4)nc4c(-c5ccsc5)cnn34)[nH]c12` [Compound 9, N-((7-chloro-1H-benzo[d]imidazol-2-yl)methyl)-2-morpholino-8-(thiophen-3-yl)pyrazolo[1,5-a][1,3,5]triazin-4-amine], the IC50 in test [1] came to 377 nM. In addition, halving of growth in the test on MDA-MB-231 (GI50) required 227 nM.
As for `CN1CCN(c2nc(NCc3nc4cccc(Cl)c4[nH]3)n3ncc(-c4ccsc4)c3n2)CC1` [Compound 10, N-((7-chloro-1H-benzo[d]imidazol-2-yl)methyl)-2-(4-methylpiperazin-1-yl)-8-(thiophen-3-yl)pyrazolo[1,5-a][1,3,5]triazin-4-amine], the IC50 in test [1] came out at 1560 nM. For the same molecule, the GI50 with MDA-MB-231 amounted to 835 nM.
The like results for `Fc1cc2nc(CNc3nc(N4CCOCC4)nc4c(-c5ccsc5)cnn34)[nH]c2cc1F` [Compound 11, N-((5,6-difluoro-1H-benzo[d]imidazol-2-yl)methyl)-2-morpholino-8-(thiophen-3-yl)pyrazolo[1,5-a][1,3,5]triazin-4-amine] were, in that order, 196 nM and 61 nM.
For the molecule `Cn1cc(-c2cnn3c(NCc4nc5cccc(Cl)c5[nH]4)nc(N4CCOCC4)nc23)cn1` [Compound 12, N-((7-chloro-1H-benzo[d]imidazol-2-yl)methyl)-8-(1-methyl-1H-pyrazol-4-yl)-2-morpholinopyrazolo[1,5-a][1,3,5]triazin-4-amine], the 50% inhibitory concentration (IC50) in test [1] amounted to 289 nM. The molecule further had a GI50 in the test with MDA-MB-231 of 1110 nM.
Take `Cn1cc(-c2cnn3c(NCc4nc5cccc(Cl)c5[nH]4)nc(N4CCC(F)(F)CC4)nc23)cn1` [Compound 13, N-((7-chloro-1H-benzo[d]imidazol-2-yl)methyl)-2-(4,4-difluoropiperidin-1-yl)-8-(1-methyl-1H-pyrazol-4-yl)pyrazolo[1,5-a][1,3,5]triazin-4-amine]: the IC50 in test [1] worked out at 1280 nM. Besides, in the test on MDA-MB-231, the GI50 stood at 3770 nM.
The like results for `Cn1cc(-c2cnn3c(NCc4nc5cc(F)c(F)cc5[nH]4)nc(N4CCOCC4)nc23)cn1` [Compound 14, N-((5,6-difluoro-1H-benzo[d]imidazol-2-yl)methyl)-8-(1-methyl-1H-pyrazol-4-yl)-2-morpholinopyrazolo[1,5-a][1,3,5]triazin-4-amine] were, in that order, 1350 nM and 1240 nM.
